Laboratory results from patent publication US11180462B2, “Microbiocidal oxadiazole derivatives” (SYNGENTA PARTICIPATIONS AG, priority 2015, dated 2021).

Legend:
[1] = system: Puccinia recondita f. Sp. Tritici; assay: Fungicidal activity against Puccinia recondita f. sp. tritici / wheat / leaf disc preventative (brown rust); assay type: in vivo; details: foliar, 200 ppm in the applied formulation, wheat leaf segments, preventative, compared to untreated control leaf disks, read-out: disease control
How it was run: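 200 ppm spray on wheat cv. Kanzler leaf segments; spore inoculation +1 day; 19° C., 75% rh, 12 h/12 h light cycle; single rating of % control vs untreated at 7 to 9 days.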

[2] = system: Glomerella lagenarium (Colletotrichum lagenarium); assay: Fungicidal activity against Glomerella lagenarium (Colletotrichum lagenarium) liquid culture / cucumber / preventative (anthracnose); assay type: cell-based; details: Colletotrichum orbiculare; 20 ppm in the applied formulation; liquid culture (PDB), growth inhibition measured photometrically after 3 to 4 days; compared to untreated control; read-out: disease control
How it was run: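 Percent activity against the untreated check was derived from photometric growth measurements made 2 to 7 days after conidia in potato dextrose broth were combined with compound at 20 ppm. Cultures were kept dark at 24 °C and 96% humidity.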

[3] = system: Puccinia recondita f. Sp. Tritici; assay: Fungicidal activity against Puccinia recondita f. sp. tritici / wheat / leaf disc curative (brown rust); assay type: in vivo; details: foliar, 24 h, 200 ppm in the applied formulation, wheat leaf segments, curative (applied 1 day after inoculation), compared to untreated control leaf disks, read-out: disease control
How it was run: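 % disease control vs untreated, scored 6–8 d post-application. Wheat cv. Kanzler segments, spore-inoculated, dark 19° C/75% RH; formulated cpd applied 1 d post-inoc; then 19° C, 75% RH, 12 h L/12 h D.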

[4] = system: Phakopsora Pachyrhizi; assay: Fungicidal activity against Phakopsora pachyrhizi / soybean / leaf disc preventative (Asian soybean rust); assay type: in vivo; details: foliar, 200 ppm in the applied formulation, soybean leaf disks, compared to untreated control leaf disks, read-out: disease control
How it was run: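 Scored 12 to 14 days post-application as percent control relative to untreated check discs, rust spores were sprayed under the disc one day after compound treatment. Incubation: 20°C, 75% rh, first 24–36 h in darkness, then 12 h daily light; discs kept on water agar.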

SMILES: CON(Cc1ccc(-c2noc(C(F)(F)F)n2)cc1)C(=O)C1CCCN1.Cl (stereo not drawn)
- melting point: 185.5 to 188.5 °C

SMILES: CON(Cc1ccc(-c2noc(C(F)(F)F)n2)cn1)C(=O)c1ccccc1Cl [Compound 1.572, 2-chloro-N-methoxy-N-[[5-[5-(trifluoromethyl)-1,2,4-oxadiazol-3-yl]-2-pyridyl]methyl]-benzamide]
- pest or weed control at 200 ppm [1]: ≥ 80%
- inhibition of growth at 20 ppm [2]: ≥ 80%
- melting point: 80 to 89 °C

SMILES: CCC(=O)NC(C)C(=O)N(Cc1ccc(-c2noc(C(F)(F)F)n2)cc1)OC (stereo not drawn) [Compound 1.797, N-methoxy-2-(propanoylamino)-N-[[4-[5-(trifluoromethyl)-1,2,4-oxadiazol-3-yl]phenyl]methyl]-propanamide]
- melting point: 121.7 to 123.9 °C

SMILES: CON(Cc1ccc(-c2noc(C(F)(F)F)n2)cc1)C(=O)C(C)NC(=O)C1CC1 (stereo not drawn) [Compound 1.798, N-[2-(methoxy-[[4-[5-(trifluoromethyl)-1,2,4-oxadiazol-3-yl]phenyl]methyl]-amino]-1-methyl-2-oxo-ethyl]-cyclopropane-carboxamide]
- melting point: 129.7 to 134 °C

SMILES: CCC(=O)NC(C(=O)N(Cc1ccc(-c2noc(C(F)(F)F)n2)cc1)OC)C(C)C (stereo not drawn) [Compound 1.802, N-methoxy-3-methyl-2-(propanoylamino)-N-[[4-[5-(trifluoromethyl)-1,2,4-oxadiazol-3-yl]phenyl]methyl]-butanamide]
- melting point: 98.5 to 100.6 °C

SMILES: CCC(=O)N1CCCC1C(=O)N(Cc1ccc(-c2noc(C(F)(F)F)n2)cc1)OC (stereo not drawn) [Compound 1.803, N-methoxy-1-propanoyl-N-[[4-[5-(trifluoromethyl)-1,2,4-oxadiazol-3-yl]phenyl]methyl]-pyrrolidine-2-carboxamide]
- melting point: 148.2 to 150.6 °C

SMILES: CON(Cc1ccc(-c2noc(C(F)(F)F)n2)cc1)C(=O)C1CCCN1C(C)=O (stereo not drawn) [Compound 1.805, 1-acetyl-N-methoxy-N-[[4-[5-(trifluoromethyl)-1,2,4-oxadiazol-3-yl]phenyl]methyl]-pyrrolidine-2-carboxamide]
- melting point: 93.9 to 96.8 °C

SMILES: CON(Cc1ccc(-c2noc(C(F)(F)F)n2)cc1)C(=O)CBr [Compound 1.806, 2-bromo-N-methoxy-N-[[4-[5-(trifluoromethyl)-1,2,4-oxadiazol-3-yl]phenyl]methyl]-acetamide]
- melting point: 81.2 to 84.9 °C

SMILES: CCOC(=O)c1cnn(CC(=O)N(Cc2ccc(-c3noc(C(F)(F)F)n3)cc2)OC)c1 [Compound 1.807, ethyl 1-[2-[methoxy-[[4-[5-(trifluoromethyl)-1,2,4-oxadiazol-3-yl]phenyl]methyl]-amino]-2-oxo-ethyl]pyrazole-4-carboxylate]
- melting point: 79.1 to 80.4 °C

SMILES: CON(Cc1ccc(-c2noc(C(F)(F)F)n2)cc1)C(=O)Cn1cncn1 [Compound 1.808, N-methoxy-2-(1,2,4-triazol-1-yl)-N-[[4-[5-(trifluoromethyl)-1,2,4-oxadiazol-3-yl]phenyl]methyl]-acetamide]
- melting point: 125.1 to 127.2 °C

SMILES: CN(C)C(=O)N(Cc1ccc(-c2noc(C(F)(F)F)n2)cc1)CC(F)(F)F [Compound 3.26, 1,1-dimethyl-3-(2,2,2-trifluoroethyl)-3-[[4-[5-(trifluoromethyl)-1,2,4-oxadiazol-3-yl]phenyl]methyl]urea]
- pest or weed control at 200 ppm [1]: ≥ 80%
- pest or weed control at 200 ppm [3]: ≥ 80%
- pest or weed control at 200 ppm [4]: ≥ 80%
- inhibition of growth at 20 ppm [2]: ≥ 80%

SMILES: CCON(Cc1ccc(-c2noc(C(F)(F)F)n2)cc1)C(=O)N(C)C [Compound 3.28, 1-ethoxy-3,3-dimethyl-1-[[4-[5-(trifluoromethyl)-1,2,4-oxadiazol-3-yl]phenyl]methyl]urea]
- pest or weed control at 200 ppm [1]: ≥ 80%
- pest or weed control at 200 ppm [3]: ≥ 80%
- pest or weed control at 200 ppm [4]: ≥ 80%
- inhibition of growth at 20 ppm [2]: ≥ 80%

SMILES: CCCN(Cc1ccc(-c2noc(C(F)(F)F)n2)cc1)C(=O)N(C)OC [Compound 3.30, 1-methoxy-1-methyl-3-propyl-3-[[4-[5-(trifluoromethyl)-1,2,4-oxadiazol-3-yl]phenyl]methyl]urea]
- pest or weed control at 200 ppm [1]: ≥ 80%
- pest or weed control at 200 ppm [3]: ≥ 80%
- pest or weed control at 200 ppm [4]: ≥ 80%
- inhibition of growth at 20 ppm [2]: ≥ 80%

SMILES: CON(C)C(=O)N(Cc1ccc(-c2noc(C(F)(F)F)n2)cc1)C1CC1 [Compound 3.33, 1-cyclopropyl-3-methoxy-3-methyl-1-[[4-[5-(trifluoromethyl)-1,2,4-oxadiazol-3-yl]phenyl]methyl]urea]
- pest or weed control at 200 ppm [1]: ≥ 80%
- pest or weed control at 200 ppm [3]: ≥ 80%
- pest or weed control at 200 ppm [4]: ≥ 80%
- inhibition of growth at 20 ppm [2]: ≥ 80%

SMILES: CCNC(=O)N(Cc1ccc(-c2noc(C(F)(F)F)n2)cc1)C1CC1 [Compound 3.34, 1-cyclopropyl-3-ethyl-1-[[4-[5-(trifluoromethyl)-1,2,4-oxadiazol-3-yl]phenyl]methyl]urea]
- pest or weed control at 200 ppm [1]: ≥ 80%
- pest or weed control at 200 ppm [3]: ≥ 80%
- pest or weed control at 200 ppm [4]: ≥ 80%
- inhibition of growth at 20 ppm [2]: ≥ 80%

SMILES: O=C(NC1CC1)N(Cc1ccc(-c2noc(C(F)(F)F)n2)cc1)C1CC1 [Compound 3.36, 1,3-dicyclopropyl-1-[[4-[5-(trifluoromethyl)-1,2,4-oxadiazol-3-yl]phenyl]methyl]urea]
- pest or weed control at 200 ppm [1]: ≥ 80%
- pest or weed control at 200 ppm [3]: ≥ 80%
- pest or weed control at 200 ppm [4]: ≥ 80%
- inhibition of growth at 20 ppm [2]: ≥ 80%

SMILES: CON(Cc1ccc(-c2noc(C(F)(F)F)n2)cc1)C(=O)NCC1(C#N)CC1 [Compound 3.40, 3-[(1-cyanocyclopropyl)-methyl]-1-methoxy-1-[[4-[5-(trifluoromethyl)-1,2,4-oxadiazol-3-yl]phenyl]methyl]urea]
- pest or weed control at 200 ppm [1]: ≥ 80%
- pest or weed control at 200 ppm [3]: ≥ 80%
- pest or weed control at 200 ppm [4]: ≥ 80%
- inhibition of growth at 20 ppm [2]: ≥ 80%

SMILES: CNC(=O)N(Cc1ccc(-c2noc(C(F)(F)F)n2)c(F)c1)OC [Compound 3.44, 1-[[3-fluoro-4-[5-(trifluoromethyl)-1,2,4-oxadiazol-3-yl]phenyl]methyl]-1-methoxy-3-methyl-urea]
- pest or weed control at 200 ppm [1]: ≥ 80%
- pest or weed control at 200 ppm [3]: ≥ 80%
- pest or weed control at 200 ppm [4]: ≥ 80%
- inhibition of growth at 20 ppm [2]: ≥ 80%

SMILES: CCN(Cc1ccc(-c2noc(C(F)(F)F)n2)cc1)C(=O)NC [Compound 3.52, 1-ethyl-3-methyl-1-[[4-[5-(trifluoromethyl)-1,2,4-oxadiazol-3-yl]phenyl]methyl]urea]
- pest or weed control at 200 ppm [1]: ≥ 80%
- pest or weed control at 200 ppm [3]: ≥ 80%
- pest or weed control at 200 ppm [4]: ≥ 80%
- inhibition of growth at 20 ppm [2]: ≥ 80%

SMILES: CCN(Cc1ccc(-c2noc(C(F)(F)F)n2)cc1)C(=O)NC1CC1 [Compound 3.53, 3-cyclopropyl-1-ethyl-1-[[4-[5-(trifluoromethyl)-1,2,4-oxadiazol-3-yl]phenyl]methyl]urea]
- pest or weed control at 200 ppm [1]: ≥ 80%
- pest or weed control at 200 ppm [3]: ≥ 80%
- pest or weed control at 200 ppm [4]: ≥ 80%
- inhibition of growth at 20 ppm [2]: ≥ 80%

SMILES: CON(Cc1ccc(-c2noc(C(F)(F)F)n2)cc1)C(=O)N(C)CC#N [Compound 3.57, 1-(cyanomethyl)-3-methoxy-1-methyl-3-[[4-[5-(trifluoromethyl)-1,2,4-oxadiazol-3-yl]phenyl]methyl]urea]
- pest or weed control at 200 ppm [1]: ≥ 80%
- pest or weed control at 200 ppm [3]: ≥ 80%
- pest or weed control at 200 ppm [4]: ≥ 80%
- inhibition of growth at 20 ppm [2]: ≥ 80%

SMILES: CON(Cc1ccc(-c2noc(C(F)(F)F)n2)cc1)C(=O)N(C)C1CC1 [Compound 3.58, 1-cyclopropyl-3-methoxy-1-methyl-3-[[4-[5-(trifluoromethyl)-1,2,4-oxadiazol-3-yl]phenyl]methyl]urea]
- pest or weed control at 200 ppm [1]: ≥ 80%
- pest or weed control at 200 ppm [3]: ≥ 80%
- pest or weed control at 200 ppm [4]: ≥ 80%
- inhibition of growth at 20 ppm [2]: ≥ 80%

SMILES: CON(Cc1ccc(-c2noc(C(F)(F)F)n2)cc1)C(=O)N(C)C1COC1 [Compound 3.59, 1-methoxy-3-methyl-3-(oxetan-3-yl)-1-[[4-[5-(trifluoromethyl)-1,2,4-oxadiazol-3-yl]phenyl]methyl]urea]
- pest or weed control at 200 ppm [1]: ≥ 80%
- pest or weed control at 200 ppm [3]: ≥ 80%
- pest or weed control at 200 ppm [4]: ≥ 80%
- inhibition of growth at 20 ppm [2]: ≥ 80%

SMILES: CON(Cc1ccc(-c2noc(C(F)(F)F)n2)cc1)C(=O)N1CCCC1 [Compound 3.60, N-methoxy-N-[[4-[5-(trifluoromethyl)-1,2,4-oxadiazol-3-yl]phenyl]methyl]-pyrrolidine-1-carboxamide]
- pest or weed control at 200 ppm [1]: ≥ 80%
- pest or weed control at 200 ppm [3]: ≥ 80%
- pest or weed control at 200 ppm [4]: ≥ 80%
- inhibition of growth at 20 ppm [2]: ≥ 80%

SMILES: C#CCN(C)C(=O)N(Cc1ccc(-c2noc(C(F)(F)F)n2)cc1)OC [Compound 3.61, 1-methoxy-3-methyl-3-prop-2-ynyl-1-[[4-[5-(trifluoromethyl)-1,2,4-oxadiazol-3-yl]phenyl]methyl]urea]
- pest or weed control at 200 ppm [1]: ≥ 80%
- pest or weed control at 200 ppm [3]: ≥ 80%
- pest or weed control at 200 ppm [4]: ≥ 80%
- inhibition of growth at 20 ppm [2]: ≥ 80%
